Measurements from patent US10584115B2, “Substituted pyridine and pyrazine BMI-1 inhibitors” (PTC Therapeutics, Inc., priority 2013, dated 2020).

Each compound was assayed on Bmi-1 protein (assay: Sandwich ELISA Assay (Bmi-1 protein level in HT-1080 cells after compound treatment)). Details: Table 1, Bmi-1 sandwich ELISA, read-out: ELISA EC50 value for Bmi-1 protein.
Assay type: cell-based
Procedure, shortened: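 Sandwich ELISA quantified Bmi-1 protein against recombinant standard (125–8000 pg/mL), with lysates captured overnight at 4 °C and signal by HRP/TMB at 450 nm (570 nm reference). Lysates came from HT-1080 cells incubated 40–48 h with test compounds in 0.5% DMSO.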

EC50	Compound
10 to 100 nM	CNc1nc2ccccc2n1-c1cncc(Nc2ccc(OC(F)(F)F)cc2)n1 [compound 183, N-methyl-1-(6-{[4-(trifluoromethoxy)phenyl]amino}pyrazin-2-yl)-1H-benzimidazol-2-amine]
100 to 3000 nM	N#Cc1nc2ccccc2n1-c1cncc(Nc2ccc(OC(F)(F)F)cc2)n1 [compound 184, 1-(6-{[4-(trifluoromethoxy)phenyl]amino}pyrazin-2-yl)-1H-benzimidazole-2-carbonitrile]
1 to 10 nM	CSc1nc2ccccn2c1-c1cncc(Nc2ccc(C(F)(F)F)cc2)n1 [compound 191, 6-[2-(methylsulfanyl)imidazo[1,2-a]pyridin-3-yl]-N-[4-(trifluoromethyl)phenyl]pyrazin-2-amine]
100 to 3000 nM	FC(F)(F)Oc1ccc(Nc2cccc(-c3c(C(F)(F)F)nc4cnccn34)n2)cc1 [compound 195, N-[4-(trifluoromethoxy)phenyl]-6-[2-(trifluoromethyl)imidazo[1,2-a]pyrazin-3-yl]pyridin-2-amine]
10 to 100 nM	O=[N+]([O-])c1cc(Nc2ccc(OC(F)(F)F)cc2)nc(-c2c(C(F)(F)F)nc3ccccn23)c1 [compound 197, 4-nitro-N-[4-(trifluoromethoxy)phenyl]-6-[2-(trifluoromethyl)imidazo[1,2-a]pyridin-3-yl]pyridin-2-amine]
10 to 100 nM	Nc1cc(Nc2ccc(OC(F)(F)F)cc2)nc(-c2c(C(F)(F)F)nc3ccccn23)c1 [compound 198, N^2-[4-(trifluoromethoxy)phenyl]-6-[2-(trifluoromethyl)imidazo[1,2-a]pyridin-3-yl]pyridine-2,4-diamine]
100 to 3000 nM	Oc1ccc(Nc2cncc(-c3c(C(F)(F)F)nc4ccccn34)n2)cc1 [compound 207, 4-({6-[2-(trifluoromethyl)imidazo[1,2-a]pyridin-3-yl]pyrazin-2-yl}amino)phenol]
100 to 3000 nM	FC(F)(F)Sc1ccc(Nc2cncc(-c3c(C(F)(F)F)nc4ccccn34)n2)cc1 [compound 211, 6-[2-(trifluoromethyl)imidazo[1,2-a]pyridin-3-yl]-N-{4-[(trifluoromethyl)sulfanyl]phenyl}pyrazin-2-amine]
100 to 3000 nM	O=C(c1ccc(Nc2cncc(-c3c(C(F)(F)F)nc4ccccn34)n2)cc1)C(F)(F)F [compound 212, 2,2,2-trifluoro-1-[4-({6-[2-(trifluoromethyl)imidazo[1,2-a]pyridin-3-yl]pyrazin-2-yl}amino)phenyl]ethanone]
100 to 3000 nM	OCc1nc2ccccn2c1-c1cncc(Nc2ccc(OC(F)(F)F)cc2)n1 [compound 213, [3-(6-{[4-(trifluoromethoxy)phenyl]amino}pyrazin-2-yl)imidazo[1,2-a]pyridin-2-yl]methanol]
< 1 nM	Cc1ccc(Nc2cncc(-c3c(CO)nc4ccccn34)n2)cc1 [compound 214, (3-{6-[(4-methylphenyl)amino]pyrazin-2-yl}imidazo[1,2-a]pyridin-2-yl)methanol]
1 to 10 nM	OCc1nc2ccccn2c1-c1cncc(Nc2ccc(OC(F)F)cc2)n1 [compound 215, [3-(6-{[4-(difluoromethoxy)phenyl]amino}pyrazin-2-yl)imidazo[1,2-a]pyridin-2-yl]methanol]
10 to 100 nM	N#Cc1cc(Nc2ccc(OC(F)(F)F)cc2)nc(-c2c(C(F)(F)F)nc3ccccn23)c1 [compound 218, 2-{[4-(trifluoromethoxy)phenyl]amino}-6-[2-(trifluoromethyl)imidazo[1,2-a]pyridin-3-yl]pyridine-4-carbonitrile]

More lines, now with the values behind:

Compound	EC50
Nc1cc(Nc2ccc(OC(F)F)cc2)nc(-c2c(C(F)(F)F)nc3ccccn23)c1 [compound 170, N^2-[4-(difluoromethoxy)phenyl]-6-[2-(trifluoromethyl)imidazo[1,2-a]pyridin-3-yl]pyridine-2,4-diamine]	100 to 3000 nM
OCCNc1cc(Nc2ccc(OC(F)F)cc2)nc(-c2c(C(F)(F)F)nc3ccccn23)c1 [compound 171]	10 to 100 nM
COCCNc1cc(Nc2ccc(OC(F)F)cc2)nc(-c2c(C(F)(F)F)nc3ccccn23)c1 [compound 172, N^2-[4-(difluoromethoxy)phenyl]-N^4-(2-methoxyethyl)-6-[2-(trifluoromethyl)imidazo[1,2-a]pyridin-3-yl]pyridine-2,4-diamine]	10 to 100 nM
CSc1cc(Nc2ccc(C(F)(F)F)cc2)nc(-c2c(C(F)(F)F)nc3ccccn23)c1 [compound 173, 4-(methylsulfanyl)-6-[2-(trifluoromethyl)imidazo[1,2-a]pyridin-3-yl]-N-[4-(trifluoromethyl)phenyl]pyridin-2-amine]	100 to 3000 nM
COc1ccc(Nc2cccc(-n3c(C)cc4ccccc43)n2)cc1 [compound 174, N-(4-methoxyphenyl)-6-(2-methyl-1H-indol-1-yl)pyridin-2-amine]	100 to 3000 nM
CCc1nc2cc(F)c(F)cc2n1-c1cncc(Nc2ccc(C(F)(F)F)cc2)n1 [compound 177, 6-(2-ethyl-5,6-difluoro-1H-benzimidazol-1-yl)-N-[4-(trifluoromethyl)phenyl]pyrazin-2-amine]	10 to 100 nM
CSc1nc2ccccc2n1-c1cncc(Nc2ccc(OC(F)F)cc2)n1 [compound 181, N-[4-(difluoromethoxy)phenyl]-6-[2-(methylsulfanyl)-1H-benzimidazol-1-yl]pyrazin-2-amine]	10 to 100 nM
Fc1cc2nc(C3CC3)n(-c3cncc(Nc4ccc(C(F)(F)F)cc4)n3)c2cc1F [compound 182, 6-(2-cyclopropyl-5,6-difluoro-1H-benzimidazol-1-yl)-N-[4-(trifluoromethyl)phenyl]pyrazin-2-amine]	10 to 100 nM
Cc1nc2ccccc2n1-c1cncc(Nc2ccc(C(N)=O)cc2)n1 [compound 185, 4-{[6-(2-methyl-1H-benzimidazol-1-yl)pyrazin-2-yl]amino}benzamide]	100 to 3000 nM
CNC(=O)c1ccc(Nc2cncc(-n3c(C)nc4ccccc43)n2)cc1 [compound 186, N-methyl-4-{[6-(2-methyl-1H-benzimidazol-1-yl)pyrazin-2-yl]amino}benzamide]	100 to 3000 nM
CNc1nc2ccccc2n1-c1cncc(Nc2ccc(OC(F)F)cc2)n1 [compound 187, 1-(6-{[4-(difluoromethoxy)phenyl]amino}pyrazin-2-yl)-N-methyl-1H-benzimidazol-2-amine]	1 to 10 nM
N#Cc1nc2ccccc2n1-c1cncc(Nc2ccc(OC(F)F)cc2)n1 [compound 188, 1-(6-{[4-(difluoromethoxy)phenyl]amino}pyrazin-2-yl)-1H-benzimidazole-2-carbonitrile]	10 to 100 nM
Cc1nc2cc(Cl)c(Cl)cc2n1-c1cncc(Nc2ccc(OC(F)(F)F)cc2)n1 [compound 192, 6-(5,6-dichloro-2-methyl-1H-benzimidazol-1-yl)-N-[4-(trifluoromethoxy)phenyl]pyrazin-2-amine]	10 to 100 nM
Cc1nc2cc(Cl)c(Cl)cc2n1-c1cncc(Nc2ccc(C(F)(F)F)cc2)n1 [compound 193, 6-(5,6-dichloro-2-methyl-1H-benzimidazol-1-yl)-N-[4-(trifluoromethyl)phenyl]pyrazin-2-amine]	10 to 100 nM
FC(F)(F)c1ccc(Nc2cccc(-c3c(C(F)(F)F)nc4cnccn34)n2)cc1 [compound 194, 6-[2-(trifluoromethyl)imidazo[1,2-a]pyrazin-3-yl]-N-[4-(trifluoromethyl)phenyl]pyridin-2-amine]	10 to 100 nM
FC(F)Oc1ccc(Nc2cccc(-c3c(C(F)(F)F)nc4cnccn34)n2)cc1 [compound 196, N-[4-(difluoromethoxy)phenyl]-6-[2-(trifluoromethyl)imidazo[1,2-a]pyrazin-3-yl]pyridin-2-amine]	10 to 100 nM
Cc1nc2cc(F)c(F)cc2n1-c1cncc(Nc2ccc(OC(F)F)cc2)n1 [compound 199, N-[4-(difluoromethoxy)phenyl]-6-(5,6-difluoro-2-methyl-1H-benzimidazol-1-yl)pyrazin-2-amine]	1 to 10 nM
FC(F)(F)c1nc2ccccn2c1-c1cncc(Nc2cnc(Cl)nc2)n1 [compound 200, 2-chloro-N-{6-[2-(trifluoromethyl)imidazo[1,2-a]pyridin-3-yl]pyrazin-2-yl}pyrimidin-5-amine]	100 to 3000 nM
Cc1nc2ccccc2n1-c1cncc(Nc2ccc(C(F)(F)F)c(F)c2)n1 [compound 209, N-[3-fluoro-4-(trifluoromethyl)phenyl]-6-(2-methyl-1H-benzimidazol-1-yl)pyrazin-2-amine]	10 to 100 nM
N#Cc1cc(Nc2ccc(C(F)(F)F)cc2)nc(-c2c(C(F)(F)F)nc3ccccn23)c1 [compound 210, 2-[2-(trifluoromethyl)imidazo[1,2-a]pyridin-3-yl]-6-{[4-(trifluoromethyl)phenyl]amino}pyridine-4-carbonitrile]	10 to 100 nM
Cc1nc2ccc(Cl)cc2n1-c1cncc(Nc2ccc(OC(F)(F)F)cc2)n1 [compound 220, 6-(6-chloro-2-methyl-1H-benzimidazol-1-yl)-N-[4-(trifluoromethoxy)phenyl]pyrazin-2-amine]	10 to 100 nM
Cc1nc2ccc(Cl)cc2n1-c1cncc(Nc2ccc(OC(F)F)cc2)n1 [compound 221, 6-(6-chloro-2-methyl-1H-benzimidazol-1-yl)-N-[4-(difluoromethoxy)phenyl]pyrazin-2-amine]	1 to 10 nM
N#Cc1cc(Nc2ccc(OC(F)(F)F)cc2)nc(-c2c(C(F)(F)F)nc3ccc(F)cn23)c1 [compound 222, 2-[6-fluoro-2-(trifluoromethyl)imidazo[1,2-a]pyridin-3-yl]-6-{[4-(trifluoromethoxy)phenyl]amino}pyridine-4-carbonitrile]	10 to 100 nM
Cc1nc2cc(Cl)ccc2n1-c1cncc(Nc2ccc(OC(F)(F)F)cc2)n1 [compound 223, 6-(5-chloro-2-methyl-1H-benzimidazol-1-yl)-N-[4-(trifluoromethoxy)phenyl]pyrazin-2-amine]	100 to 3000 nM
Cc1nc2cc(Cl)ccc2n1-c1cncc(Nc2ccc(OC(F)F)cc2)n1 [compound 224, 6-(5-chloro-2-methyl-1H-benzimidazol-1-yl)-N-[4-(difluoromethoxy)phenyl]pyrazin-2-amine]	10 to 100 nM
